Results published in US8394971B2, “Indole derivatives as selective androgen receptor modulators (SARMS)” (Janssen Pharmaceutica N.V., priority 2004, dated 2013).
Values joined by “and” are separate entries in the source; they are usually repeats but may differ in a detail not shown here. Equal entries are not always repeated. Where two headings read alike, the source gives them in different places.

Tests used:
[1] = molecular target: T1, androgen receptor LBD (Panvera) (Rattus norvegicus, UniProt P15207); assay: Androgen Receptor Filtration Binding Assay (PANVERA)
T1 construct: 5 pmol androgen receptor LBD (Panvera); purchased Panvera
T1 sequence (P15207 651-882 limits assumed): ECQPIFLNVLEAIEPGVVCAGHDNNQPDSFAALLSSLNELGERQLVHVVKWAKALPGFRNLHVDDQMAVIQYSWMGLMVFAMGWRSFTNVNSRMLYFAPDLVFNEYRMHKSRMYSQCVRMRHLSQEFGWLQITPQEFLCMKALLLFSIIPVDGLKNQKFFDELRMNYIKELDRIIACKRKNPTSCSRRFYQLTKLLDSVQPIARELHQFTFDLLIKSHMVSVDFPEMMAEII
Method: (§1) The assay was run on a 96 well plate with each well filled with a total reaction volume 150 μL, of a solution containing 5 pmol androgen receptor LBD (Panvera) or 30 μL of freshly prepared rat cytosol, 0.5 nM [^3H] […] (TED buffer contains 10 mM Tris.HCl pH 7.4, 1 mM sodium molybdate, 1.5 mM EDTA, 1 mM DTT and 10% (v/v) glycerol.)
(§2) On day one, the solution containing receptor, tracer and TED buffer was distributed into a 96 well plate. Diluted test compound or control vehicle was then added to individual wells and the plate incubated at 4° C. overnight.
(§3) On day two, to each well was then added 20 μL human γ-globulin (ICN 823102), prepared at 25 mg/ml in TE pH 8.0, and 55 μL 40% polyethylene glycol 8000 (JT Baker U222-08), prepared in TE pH 8.0. The plate was incubated at 4° C. for 60 minutes. During incubation, the harvester was rinsed with 10% PEG 8000, prepared in TE pH 8.0, and a GF/C Unifilter-96 was pre-wet with 10% PEG. The binding reaction was filtered, the retentate was washed three times with 10% PEG and dried under vacuum for a couple of minutes, then dried at 50° C. for 5 min and the plate was bottom sealed. Next, 25 μL of Microscint-20 (Packard) was added to the filter wells and the plate was top sealed. The plate wells were then counted on a TopCount (Packard).
Counts per well were measured and IC50s determined by linear regression.

[2] = molecular target: T2, androgen receptor (rat ventral prostate cytosol) (Rattus norvegicus, UniProt P15207); assay: Androgen Receptor Binding Using Rat Ventral Prostate Cytosol; conditions: for IC50: read-out: IC50
T2 construct: from tissue; host or cells: ventral prostate of castrated male Sprague Dawley or Wistar rats, cytosol
T2 sequence (P15207 1-902): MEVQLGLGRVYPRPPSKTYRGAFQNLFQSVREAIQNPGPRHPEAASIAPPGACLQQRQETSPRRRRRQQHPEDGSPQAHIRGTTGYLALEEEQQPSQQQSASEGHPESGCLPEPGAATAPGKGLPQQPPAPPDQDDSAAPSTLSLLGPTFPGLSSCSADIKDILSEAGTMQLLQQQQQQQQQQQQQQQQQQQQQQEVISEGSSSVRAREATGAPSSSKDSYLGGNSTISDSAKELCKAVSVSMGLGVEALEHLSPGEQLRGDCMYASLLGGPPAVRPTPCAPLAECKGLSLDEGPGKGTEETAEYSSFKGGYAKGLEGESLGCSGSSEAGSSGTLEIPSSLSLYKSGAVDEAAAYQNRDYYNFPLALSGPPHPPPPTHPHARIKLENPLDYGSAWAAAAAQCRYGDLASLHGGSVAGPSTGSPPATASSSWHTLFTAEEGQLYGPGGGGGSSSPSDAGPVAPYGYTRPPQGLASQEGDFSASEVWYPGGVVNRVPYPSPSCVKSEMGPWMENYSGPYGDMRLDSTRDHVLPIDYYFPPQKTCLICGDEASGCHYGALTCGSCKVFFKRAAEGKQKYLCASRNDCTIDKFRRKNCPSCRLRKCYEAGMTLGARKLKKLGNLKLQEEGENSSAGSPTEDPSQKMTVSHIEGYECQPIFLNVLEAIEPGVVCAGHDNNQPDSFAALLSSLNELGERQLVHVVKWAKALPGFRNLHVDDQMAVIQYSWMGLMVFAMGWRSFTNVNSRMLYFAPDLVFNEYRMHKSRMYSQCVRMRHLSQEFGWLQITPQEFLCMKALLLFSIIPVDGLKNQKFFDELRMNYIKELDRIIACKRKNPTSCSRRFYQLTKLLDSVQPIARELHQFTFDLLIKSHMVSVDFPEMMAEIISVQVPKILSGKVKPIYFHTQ
Method: as §1, §2, §3
Rat Prostate Cytosol Preparation:
Male Sprague Dawley or Wistar rats (Charles River, 200-300 g) were used for each preparation. The day before preparing the cytosol, the rats were castrated using standard surgical procedures.
The rats were euthanized by carbon dioxide asphyxiation. The rat prostates were quickly removed and placed on ice in pre-chilled, pre-weighed 50 mL plastic tubes. No more than five prostates were placed into one tube. The tubes were then weighed and the prostate tissue wet weights calculated.
To the chilled prostate tissue was then added […] of chilled homogenization buffer. The homogenization buffer was freshly prepared by mixing 10 mM Tris.HCl, pH 7.4, 1 mM sodium molybdate, 1.5 mM EDTA, 1 mM dithiothreitol, 10% (v/v) glycerol and 1% protease inhibitor cocktail (Sigma P 8340).
The prostate tissue was homogenized in a cold room using a pre-chilled Polytron PT3000 homogenizer (Brinkmann). Homogenization was performed at a speed setting of 20, three times for 10 sec bursts. The tubes containing the prostate tissue was kept on ice while homogenizing. The homogenate was allowed to rest on ice for 20 sec between bursts.
The homogenate was then placed into pre-chilled 3 mL polycarbonate ultracentrifuge tubes and centrifuged in the TLA-100 rotor of a TL-100 ultracentrifuge for 12 min at 100,000 rpm at 4° C. The resulting supernatant was stored in 1 mL aliquots at −80° C. until needed.
Binding to the androgen receptor was determined according to the protocol described in Example 86 using the above prepared rat cytosol.
% Inhibition was determined by testing dilutions of the test compound (usually duplicates of 10 μM) in the binding assay. Counts per well were measured and percents of inhibition determined. […] Counts per well were measured and IC50s determined by linear regression.

[3] = molecular target: T3, androgen receptor (adenovirus AdEasy+rAR in L929 cells) (Rattus norvegicus, UniProt P15207); assay: L929 Androgen Receptor Functional Assay, Adenovirus Transduction; format: cell-based; conditions: L929 agonist testing; 3000 nM
T3 construct: expressed in transfected cells
T3 sequence (P15207 1-902): T2 sequence (P15207 1-902)
Outline: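 Luminescent reporter readout after 48 h at 37 °C: rat AR delivered by adenovirus (AdEasy+rAR, moi 1:500) into L929 cells grown without phenol red in charcoal-treated serum. Antagonist wells also received R1881 (2.5× dilution at 2.5 nM).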

[4] = system: testosterone-enhanced ventral prostate and seminal vesicle weights in castrated male Sprague Dawley rats; assay: Ventral Prostate and Seminal Vesicle Weight In Vivo Assay; parameters: species or system rat; conditions: immature castrated rats; once daily for five days, usually orally at 40 mg/kg, with testosterone propionate 2 mg/kg s.c.
Outline: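 Immature (~50 g) castrated Sprague Dawley rats dosed once daily for five days with compound (usually oral, 40 mg/kg, cyclodextrin or methylcellulose vehicle) plus testosterone propionate 2 mg/kg s.c. Wet ventral prostate and seminal vesicle weights taken on day six; activity judged by prostate weight or body-weight-adjusted % inhibition.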

[5] = Androgen Receptor Binding (Panvera), 0.5 nM [3H] R1881 tracer
[6] = rat cytosol, concentration 3000 nM
[7] = rat cytosol, concentration 1000 nM

CC(O)(CSC1CCCCC1)c1cc2nc(C(F)(F)F)ccc2[nH]1 (racemic) [Compound #1]
IC50 [1, 5]: 14000 nM
% Inhibition ([2]; 1 µM): 22%

CC(O)(CS(=O)(=O)Cc1ccccc1)c1cc2cc([N+](=O)[O-])c(C(F)(F)F)cc2[nH]1 (racemic) [compound 162]
% Activity [3]: 2%
active / inactive (inhibition of testosterone-enhanced prostate weight) [4]: inactive
% Inhibition [2, 6]: 0.69%

CC(O)(Sc1ccc(Cl)c(Cl)c1)c1cc2cc([N+](=O)[O-])c(C(F)(F)F)cc2[nH]1 (racemic) [compound 254]
IC50 [1, 5]: 1020 nM and 920 nM
% Inhibition [2, 7]: 41%
IC50 ([2]; rat cytosol): 670 nM

CC(O)(SC1CCCCC1)c1cc2cc([N+](=O)[O-])c(C(F)(F)F)cc2[nH]1 (racemic) [compound 256]
IC50 [1, 5]: 2650 nM

CC(O)(SC1CCCCC1)c1cc2cc(C#N)c(C(F)(F)F)cc2[nH]1 (racemic) [compound 257]
IC50 [1, 5]: 5150 nM

CC(O)(Sc1ccccc1)c1cc2cc([N+](=O)[O-])c(C(F)(F)F)cc2[nH]1 (racemic) [compound 258]
IC50 [1, 5]: 2450 nM
% Inhibition [2, 7]: 35.4%

CC(O)(Sc1ccc(Cl)cc1)c1cc2cc([N+](=O)[O-])c(C(F)(F)F)cc2[nH]1 (racemic) [compound 259]
IC50 [1, 5]: 915 nM

CC(O)(Sc1ccc(Cl)cc1)c1cc2cc(C#N)c(C(F)(F)F)cc2[nH]1 (racemic) [compound 261]
IC50 [1, 5]: 1460 nM
% Inhibition [2, 7]: 14.05%

CC(O)(c1cc2cc(C#N)c(C(F)(F)F)cc2[nH]1)S(=O)(=O)c1ccc(Cl)cc1 (racemic) [compound 262]
IC50 [1, 5]: > 10000 nM
% Inhibition [2, 7]: −8.4%

CC(O)(Sc1ccc(N)cc1)c1cc2cc([N+](=O)[O-])c(C(F)(F)F)cc2[nH]1 (racemic) [compound 266]
% Activity [3]: −4%
active / inactive (inhibition of testosterone-enhanced prostate weight) [4]: inactive
% Inhibition [2, 6]: 12.4%

CC(C)SC(C)(CO)c1cc2cc([N+](=O)[O-])c(C(F)(F)F)cc2[nH]1 (racemic) [compound 268]
% Activity [3]: 9%
active / inactive (inhibition of testosterone-enhanced prostate weight) [4]: inactive
% Inhibition [2, 6]: −3.3%

CS(=O)(=O)n1c(C2(O)CCN(Cc3ccccc3)CC2)cc2cc(Cl)c(C(F)(F)F)cc21 [Compound #21]
IC50 [1, 5]: > 10200 nM
inhibition at 1 µM [2, 7]: -41.5%

OC1(c2cc3cc(Cl)c(C(F)(F)F)cc3[nH]2)CCN(Cc2ccccc2)CC1 [Compound #22]
IC50 [1, 5]: > 9600 nM

CS(=O)(=O)n1c(C2(O)CCNCC2)cc2cc(Cl)c(C(F)(F)F)cc21 [Compound #23]
IC50 [1, 5]: 54000 nM
inhibition at 1 µM [2, 7]: -1.5%
IC50 ([2]; rat cytosol): 6000 nM

O=C(c1ccc(Cl)cc1)N1CCC(O)(c2cc3cc(Cl)c(C(F)(F)F)cc3[nH]2)CC1 [Compound #25]
IC50 [1, 5]: 8800 nM
inhibition at 1 µM [2, 7]: -83.5%

CS(=O)(=O)n1c(C2(O)CCN(C(=O)OCc3ccccc3)CC2)cc2cc(Cl)c(C(F)(F)F)cc21 [compound 19]
IC50 [1, 5]: > 100000 nM
inhibition at 1 µM [2, 7]: -55%

CC(O)(COC(=O)c1ccccc1Cl)c1cc2cc([N+](=O)[O-])c(C(F)(F)F)cc2[nH]1 (centres unmarked) [compound 54]
IC50 [1]: 465 nM

CC(O)(COC(=O)c1ccc(Cl)cc1)c1cc2cc(Cl)c(C(F)(F)F)cc2[nH]1 (centres unmarked) [compound 62]
IC50 [1, 5]: 325 nM
inhibition at 1 µM [2, 7]: 69%

CC(O)(CSc1ccc(F)cc1)c1cc2cc(Cl)c(C(F)(F)F)cc2[nH]1 (centres unmarked) [compound 83]
IC50 [1, 5]: 160 nM

CC(O)(CSc1ccc(Cl)cc1)c1cc2cc(C#N)c(C(F)(F)F)cc2[nH]1 (centres unmarked) [compound 96]
IC50 [1]: 1710 nM
